Experimental data from US12448359B2, “Compounds with immunomodulatory activity and therapeutic uses thereof” (Purdue Research Foundation, priority 2020, dated 2025).

Molecular target: PD-1/PD-L1 interaction (Homo sapiens (Human), UniProt Q9NZQ7)
Assay: PD1/PD-L1 HTRF assay (Cisbio kit), inhibition of PD-1/PD-L1 interaction
Format: binding
Conditions: for IC50 / IC50 value: HTRF, inhibition of PD-1/PD-L1 interaction, 4PL fit; for inhibition to PD-1/PD-L1 interaction (in words): HTRF assay
Protocol: Briefly, 2 μL of the compound, 4 μL from a 25 nM Tagl-PD-L1 protein solution and 4 μL from a 250 nM Tag2-PD1 protein were added into a Cisbio's HTRF 96-well low volume white plate. Then, the plate was incubated for 15 minutes at room temperature. Next, 10 μL from pre-mixed anti-tag detection reagents (5 μL from 1X anti-Tagl-Eu^3+ and 5 μL from 1X anti-Tag2-XL665) were added and the sealed plate was incubated for 2 hours at room temperature. Finally, the plate sealer was removed, and measurements were taken using a HTRF® compatible reader. This protocol used 12 different concentrations of each compound where the maximum and minimum assay concentrations are 10,000 nM and 0.001 nM respectively.
To calculate ΔF/ΔFmax, first the HTRF ratio is calculated as follows;
A multiplication factor of 10000 factor was used to not deal with decimal values that improves data accuracy during calculation. The AR ratio indicating “specific signal” of the compound disrupting the PD-1/PD-L1 interaction was calculated by subtracting background HTRF ratio (negative DMSO control in our work) from each compound (sample) HTRF ratio as follows; ΔR=HTRF ratio (sample)−HTRF ratio (background)
Next, data normalization was done to minimize variation in values on different days, different plate reader instruments, or if the assay was done by different individuals. The normalization was done with respect to the background HTRF ratio and was calculated as follows;
Finally, the ΔF/ΔFmax ratio was calculated to enable comparison of values between multiple experiments.
[formula] wherein ΔF max is taken as the ΔF of the positive DMSO control in the assay.
The IC50 value for PD-1/PD-L1 inhibition was determined by analyzing the log of the concentration—response curves to fit a sigmoid curve with four-parameter logistic (4PL) regression using the GraphPad Prism Software version 8.3.0 for Windows, GraphPad Software, La Jolla California USA, www.graphpad.com. Following equation defines the regression curve.
[formula] wherein X=Log of concentration, Y=Response ΔF/ΔFmax, Top and Bottom=Plateaus in same units as Y, LogIC50=Same log units as X, HillSlope=Slope factor or Hill Slope, Unitless. Using the above equation, LogIC50, is calculated to obtain the IC50 value for each compound. The HTRF_IC50_Data.xlsx data file with all replicates is provided as a Supporting File for use in GraphPad Prism Software to calculate IC50 values.

PD-1/PD-L1 interaction, sequence (Q9NZQ7 19-238): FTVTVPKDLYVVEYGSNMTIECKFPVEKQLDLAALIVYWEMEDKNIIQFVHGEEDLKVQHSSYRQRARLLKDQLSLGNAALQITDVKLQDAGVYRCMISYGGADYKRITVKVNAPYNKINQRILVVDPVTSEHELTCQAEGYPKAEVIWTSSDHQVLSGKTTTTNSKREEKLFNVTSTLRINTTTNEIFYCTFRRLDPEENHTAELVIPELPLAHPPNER

Compound	IC50 [nM]	inhibition to PD-1/PD-L1 interaction (in words)	IC50 value
COc1cc(OCc2cccc(-c3ccc4c(c3)OCCO4)c2C)cc(OC)c1CN[C@H](CO)C(=O)O [Compound 4b]	340	–	–
COc1cc(OCc2cccc(-c3ccccc3)c2C)cc(OC)c1CNC(CC(F)(F)F)c1ccccc1 (stereo not shown) [Compound 4c, N-(2,6-dimethoxy-4-((2-methyl-[1,1′-biphenyl]-3-yl)methoxy)benzyl)-3,3,3-trifluoro-1-phenylpropan-1-amine]	–	no/poor inhibition	no inhibition
C#C[C@]1(O)CC[C@H]2[C@@H]3[C@H](C)CC4=CC(=O)CCC4[C@H]3CC[C@@]21C (stereo partly drawn) [Compound 4d, (7R,8R,9S,13S,14S,17R)-17-ethynyl-17-hydroxy-7,13-dimethyl-1,2,6,7,8,9,10,11,12,13,14,15,16,17-tetradecahydro-3H-cyclopenta[a]phenanthren-3-one]	–	no/poor inhibition	no inhibition
COc1cc(OCc2cccc(-c3ccccc3)c2C)cc(OC)c1CN1CCC[C@H](C(=O)O)C1 [Compound 4e, (S)-1-(2,6-dimethoxy-4-((2-methyl-[1,1′-biphenyl]-3-yl)methoxy)benzyl)piperidine-3-carboxylic acid]	1260	no/poor inhibition	–
